Drawing on PubChem BioAssay (NCI), this text covers GI50 and TGI for eight molecules.

The structures appear in SMILES notation.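 Five concentrations, 48 hours, 96-well plates. GI50 marks 50% less growth. The concentration for full growth arrest is given as TGI.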

Some test systems named below: MDA-MB-231 breast; U251 CNS; OVCAR-8 ovarian; HCC-2998 colon; IGROV1 ovarian; CAKI-1 renal; NCI-H226 lung; HCT-116 colon; NCI/ADR-RES ovarian; SK-OV-3 ovarian.
Holding throughout (assay): NCI-60 cell line screen, 48 h

For `COc1ccc(C/C(C)=C(\c2ccc(OCCN3CCOCC3)cc2)c2ccc(OC(=O)Cc3ccccc3)cc2)cc1`, the GI50 is 0.583 µM with MDA-MB-231 breast; 0.501 µM in the assay on U251 CNS; 1.07 µM in the assay on OVCAR-8 ovarian; 0.668 µM with HCC-2998 colon; 1.13 µM in the assay on IGROV1 ovarian; 0.729 µM with CAKI-1 renal. For the same molecule, the GI50 with NCI-H226 lung is 0.691 µM; in the assay on HCT-116 colon, 0.496 µM; with NCI/ADR-RES ovarian, 0.961 µM; with SK-OV-3 ovarian, 0.978 µM. In addition, the TGI with MDA-MB-231 breast worked out at 1.26 µM; in the assay on U251 CNS, 0.965 µM; in the assay on OVCAR-8 ovarian, 11.3 µM; with HCC-2998 colon, 1.49 µM; with IGROV1 ovarian, 5.03 µM; in the assay on CAKI-1 renal it was 2.13 µM. In addition, the TGI in the assay on NCI-H226 lung is 2.38 µM; in the assay with HCT-116 colon it was 0.989 µM; in the assay on NCI/ADR-RES ovarian, 12.5 µM; in the assay with SK-OV-3 ovarian, 4.45 µM.
On to `CCN(CCNc1ccc(C)c2sc3cc(Cl)ccc3c(=O)c12)CC(C)O` (configuration not stated), for which the GI50 in the assay on MDA-MB-231 breast was 1.99 µM; with U251 CNS, 1.94 µM; with HCC-2998 colon, 2.18 µM; in the assay with IGROV1 ovarian it was 1.25 µM; in the assay on CAKI-1 renal it was 0.643 µM; with NCI-H226 lung, 2.18 µM. The GI50 is 1.66 µM with HCT-116 colon, 2.07 µM in the assay on NCI/ADR-RES ovarian and 1.76 µM in the assay with SK-OV-3 ovarian. Moreover, the TGI with MDA-MB-231 breast is 4.17 µM; in the assay on U251 CNS, 4.24 µM; with HCC-2998 colon it was 3.62 µM; in the assay with IGROV1 ovarian it was 2.78 µM; in the assay with CAKI-1 renal, 2.49 µM; in the assay on NCI-H226 lung it was 4.72 µM. For the same molecule, the TGI came out at 3.02 µM in the assay with HCT-116 colon, 4.08 µM in the assay on NCI/ADR-RES ovarian and 3.44 µM in the assay with SK-OV-3 ovarian.
As to `Cn1ccnc1C(=O)/C=C/c1ccc(CC(=O)Nc2ccc(S(F)(F)(F)(F)F)cc2)cc1`, the GI50 with MDA-MB-231 breast was 2.91 µM; in the assay on U251 CNS it was 0.898 µM; with OVCAR-8 ovarian, 4.94 µM; in the assay with HCC-2998 colon, 2.92 µM; with IGROV1 ovarian, 2.62 µM; with CAKI-1 renal it was 2.66 µM. Also, the GI50 in the assay on NCI-H226 lung is 2.93 µM; in the assay on HCT-116 colon, 0.823 µM; in the assay with NCI/ADR-RES ovarian, 3.53 µM; with SK-OV-3 ovarian, 3.86 µM. Moreover, the TGI with MDA-MB-231 breast worked out at 6.66 µM; in the assay with U251 CNS, 3.07 µM; with OVCAR-8 ovarian, 16.5 µM; in the assay on HCC-2998 colon, 5.3 µM; with IGROV1 ovarian, 7.29 µM; in the assay with CAKI-1 renal, 5.72 µM. Further, the TGI in the assay with NCI-H226 lung was 7.02 µM; in the assay on HCT-116 colon it was 2.87 µM; in the assay with NCI/ADR-RES ovarian it was 9.35 µM; in the assay on SK-OV-3 ovarian, 11.6 µM.
Regarding `COC(=O)c1cc(-c2cc(OC)c(OC)c(OC)c2)[nH]c1N/N=C/c1c(Cl)cccc1Cl`, the GI50 in the assay with MDA-MB-231 breast is 2.75 µM; in the assay on U251 CNS, 2.17 µM; in the assay with OVCAR-8 ovarian, 1.48 µM; with HCC-2998 colon, 2.36 µM; in the assay on IGROV1 ovarian, 2.48 µM; with CAKI-1 renal it was 1.61 µM. Further, the GI50 in the assay with NCI-H226 lung is 9.54 µM; in the assay with HCT-116 colon, 1.11 µM; in the assay on NCI/ADR-RES ovarian, 1.46 µM; with SK-OV-3 ovarian it was 3.07 µM. Also, the TGI in the assay on MDA-MB-231 breast came to 22.1 µM; in the assay with U251 CNS, 10.1 µM; in the assay on OVCAR-8 ovarian, 20.3 µM; in the assay with HCC-2998 colon, 18.4 µM; with IGROV1 ovarian, 16.8 µM; in the assay on CAKI-1 renal, 11.4 µM. The TGI in the assay with NCI-H226 lung is 40.3 µM; with HCT-116 colon, above 33 µM; in the assay with NCI/ADR-RES ovarian, 18.4 µM; in the assay on SK-OV-3 ovarian it was 13.3 µM.
Take `O=C(/C=C/c1cccs1)c1ccc(Nc2nc(Nc3ccc(F)cc3)nc(Nc3ccc(F)cc3)n2)cc1`: the GI50 with MDA-MB-231 breast is 34.7 µM; with U251 CNS it was 18.3 µM; in the assay on OVCAR-8 ovarian, 21.7 µM; in the assay on HCC-2998 colon, 15.8 µM; in the assay with IGROV1 ovarian, 18 µM; in the assay with CAKI-1 renal, 38.1 µM. In addition, the GI50 in the assay with NCI-H226 lung is above 100 µM; in the assay with HCT-116 colon, 23.6 µM; in the assay with NCI/ADR-RES ovarian, 31.3 µM; in the assay on SK-OV-3 ovarian it was 56 µM. For the same molecule, the TGI is above 100 µM with MDA-MB-231 breast; 35.4 µM with U251 CNS; 51.2 µM in the assay with OVCAR-8 ovarian; above 100 µM in the assay on HCC-2998 colon; 41 µM in the assay with IGROV1 ovarian; above 100 µM in the assay with CAKI-1 renal. Besides, the TGI with NCI-H226 lung, in the assay with HCT-116 colon, with NCI/ADR-RES ovarian and in the assay with SK-OV-3 ovarian was above 100 µM in each case.
As to `C=CC1=C[C@@H]2[C@@H]3O[C@]4(CC[C@H](O4)[C@@H](C)C[C@@H](O)C3=O)C[C@H](O)C3=NCC[C@@]32CC1`, the GI50 in the assay on MDA-MB-231 breast, in the assay with U251 CNS, with OVCAR-8 ovarian, with HCC-2998 colon, in the assay with IGROV1 ovarian and in the assay with CAKI-1 renal was below 0.00333 µM throughout. Moreover, the GI50 in the assay with NCI-H226 lung, with HCT-116 colon, with NCI/ADR-RES ovarian and with SK-OV-3 ovarian was below 0.00333 µM each time. Besides, the TGI was 0.0121 µM with MDA-MB-231 breast; 0.39 µM in the assay on U251 CNS; 0.044 µM in the assay on OVCAR-8 ovarian; below 0.00333 µM in the assay on HCC-2998 colon; 0.00337 µM in the assay with IGROV1 ovarian; 0.00617 µM with CAKI-1 renal. Further, the TGI with NCI-H226 lung was below 0.00333 µM; in the assay on HCT-116 colon it was 0.00371 µM; in the assay with NCI/ADR-RES ovarian, 0.00511 µM; in the assay with SK-OV-3 ovarian it was 0.00795 µM.
With `COC1(O)C(=O)c2ccccc2OC1(OC)c1ccccc1` (configuration not stated), the TGI with MDA-MB-231 breast, with U251 CNS, in the assay with OVCAR-8 ovarian, in the assay on HCC-2998 colon, in the assay on IGROV1 ovarian and in the assay on CAKI-1 renal was above 100 µM in each case. The TGI in the assay on NCI-H226 lung, in the assay on HCT-116 colon and with NCI/ADR-RES ovarian was above 100 µM each time.
For the molecule `O=C1Nc2ccccc2C1Cc1ccc([N+](=O)[O-])cc1` (configuration not stated), the TGI in the assay on MDA-MB-231 breast, with U251 CNS, in the assay on OVCAR-8 ovarian, in the assay on HCC-2998 colon, in the assay on IGROV1 ovarian and in the assay with CAKI-1 renal was above 100 µM in each case. Besides, the TGI in the assay with NCI-H226 lung, in the assay on HCT-116 colon, with NCI/ADR-RES ovarian and in the assay with SK-OV-3 ovarian was above 100 µM in each case.
